Toxic doses and inconclusive results are not listed. Rule as the data show it: active = T/C of 150% or more; inactive = T/C below 125%.
Tested on: L1210 leukemia ip in BDF1 mice, survival T/C
Assay: NCI In Vivo Anticancer Drug Screen. Data for tumor model L1210 Leukemia (intraperitoneal) in B6D2F1 (BDF1) mice
Settings: endpoint: mean survival time, higher = longer survival
Summary of the method: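 Survival endpoint. Drug-treated group vs vehicle group, expressed as T divided by C. Tumor passaged by transplantation.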

[1] = dose: 50.0 mg/kg/injection, schedule: Q01DX001 (ip), vehicle: saline
[2] = dose: 100.0 mg/kg/injection, schedule: Q01DX001 (ip), vehicle: saline
[3] = dose: 200.0 mg/kg/injection, schedule: Q01DX001 (ip), vehicle: saline
[4] = dose: 400.0 mg/kg/injection, schedule: Q01DX001 (ip), vehicle: saline
[5] = dose: 100.0 mg/kg/injection, schedule: Q04DX002 (ip), vehicle: Klucel (hydroxypropylcellulose) (HPC)
[6] = dose: 200.0 mg/kg/injection, schedule: Q04DX002 (ip), vehicle: Klucel (hydroxypropylcellulose) (HPC)
[7] = dose: 400.0 mg/kg/injection, schedule: Q04DX002 (ip), vehicle: Klucel (hydroxypropylcellulose) (HPC)
[8] = dose: 100.0 mg/kg/injection, schedule: Q01DX009 (ip), vehicle: saline
[9] = dose: 100.0 mg/kg/injection, schedule: Q04DX003 (ip), vehicle: saline
[10] = dose: 200.0 mg/kg/injection, schedule: Q01DX009 (ip), vehicle: saline
[11] = dose: 200.0 mg/kg/injection, schedule: Q04DX003 (ip), vehicle: saline
[12] = dose: 400.0 mg/kg/injection, schedule: Q04DX003 (ip), vehicle: saline
[13] = dose: 100.0 mg/kg/injection, schedule: Q01DX001 (ip), vehicle: other
[14] = dose: 200.0 mg/kg/injection, schedule: Q01DX001 (ip), vehicle: other
[15] = dose: 100.0 mg/kg/injection, schedule: Q01DX009 (ip), vehicle: Klucel (hydroxypropylcellulose) (HPC)
[16] = dose: 200.0 mg/kg/injection, schedule: Q01DX009 (ip), vehicle: Klucel (hydroxypropylcellulose) (HPC)
[17] = dose: 100.0 mg/kg/injection, schedule: Q04DX003 (ip), vehicle: Klucel (hydroxypropylcellulose) (HPC)
[18] = dose: 200.0 mg/kg/injection, schedule: Q04DX003 (ip), vehicle: Klucel (hydroxypropylcellulose) (HPC)
[19] = dose: 400.0 mg/kg/injection, schedule: Q01DX009 (ip), vehicle: Klucel (hydroxypropylcellulose) (HPC)
[20] = dose: 400.0 mg/kg/injection, schedule: Q04DX003 (ip), vehicle: Klucel (hydroxypropylcellulose) (HPC)
[21] = dose: 100.0 mg/kg/injection, schedule: Q04DX003 (ip), vehicle: saline with Tween-80
[22] = dose: 200.0 mg/kg/injection, schedule: Q04DX003 (ip), vehicle: saline with Tween-80
[23] = dose: 400.0 mg/kg/injection, schedule: Q04DX003 (ip), vehicle: saline with Tween-80

Measured: T/C

CC(Cc1ccccc1)Nc1ccccc1 (stereo not drawn)
inactive: [1] 93 % of control | [2] 100 % of control | [3] 93 % of control | [4] 93 % of control

O=NN(CC(=O)O)c1ccc2ccccc2c1
inactive: dose: 100.0 mg/kg/injection, schedule: Q04DX002 (ip), vehicle: saline with Tween-80 90 % of control | dose: 200.0 mg/kg/injection, schedule: Q04DX002 (ip), vehicle: saline with Tween-80 90 % of control | dose: 400.0 mg/kg/injection, schedule: Q04DX002 (ip), vehicle: saline with Tween-80 93 % of control

Clc1ccc2nnnn2n1
inactive: dose: 12.5 mg/kg/injection, schedule: Q01DX009 (ip), vehicle: saline with Tween-80 97 % of control | dose: 25.0 mg/kg/injection, schedule: Q01DX009 (ip), vehicle: saline with Tween-80 100 % of control | dose: 50.0 mg/kg/injection, schedule: Q01DX009 (ip), vehicle: saline with Tween-80 110 % of control | dose: 62.5 mg/kg/injection, schedule: Q04DX003 (ip), vehicle: saline 109 % of control | [5] 115 % of control | dose: 125.0 mg/kg/injection, schedule: Q04DX003 (ip), vehicle: saline 109 % of control | [6] 115 % of control | [7] 112 % of control

CC(=O)Nc1ccc(OC(=O)Nc2ccc([N+](=O)[O-])cc2Cl)cc1
inactive: [8] 102 % of control | [9] 103 % of control | [10] 104 % of control | [11] 100 % of control | dose: 400.0 mg/kg/injection, schedule: Q01DX009 (ip), vehicle: saline 104 % of control | [12] 103 % of control

O=S(=O)(C1CC1c1ccccc1)N1CCCc2ccccc21 (stereo not drawn)
inactive: [2] 103 % of control | [9] 98 % of control | [3] 103 % of control | [11] 98 % of control | [4] 95 % of control | [12] 104 % of control

O=[N+]([O-])/C=C/c1ccc(Br)cc1
inactive: dose: 75.0 mg/kg/injection, schedule: Q01DX001 (ip), vehicle: saline 95 % of control

O=[N+]([O-])/C(N=Nc1ccc(Br)cc1)=N\Nc1ccc(Br)cc1
inactive: dose: 75.0 mg/kg/injection, schedule: Q01DX001 (ip), vehicle: acetone 87 % of control | dose: 150.0 mg/kg/injection, schedule: Q01DX001 (ip), vehicle: acetone 89 % of control

Cc1[nH]c2cc(O)c(O)c(C)c2c1C
inactive: [2] 96 % of control

CC(=O)OC1CCC(NC(=O)NCCF)CC1 (stereo not drawn)
inactive: [13] 98 % of control | [14] 104 % of control | dose: 400.0 mg/kg/injection, schedule: Q01DX001 (ip), vehicle: other 115 % of control

Cc1ccccc1C(c1ccccc1)N(C)C (stereo not drawn)
inactive: [1] 100 % of control | [2] 96 % of control | [3] 96 % of control | [4] 92 % of control

CCC1=NS(=O)(=O)c2c(ncn2C)N1
inactive: dose: 100.0 mg/kg/injection, schedule: Q04DX003 (ip), vehicle: other 97 % of control | dose: 200.0 mg/kg/injection, schedule: Q04DX003 (ip), vehicle: other 97 % of control | dose: 400.0 mg/kg/injection, schedule: Q04DX003 (ip), vehicle: other 103 % of control

O=S(=O)(F)c1cc(Cl)c(O)cc1Cl
inactive: [15] 97 % of control | [16] 101 % of control

CCOC(=O)Nc1cc(Cl)c([N+](=O)[O-])c(NC(=O)OCC)n1
inactive: [13] 102 % of control | [14] 91 % of control

O=[N+]([O-])c1ccc(Oc2ccc(Br)cc2)c([N+](=O)[O-])c1
inactive: [5] 103 % of control | [6] 93 % of control | [7] 97 % of control

Nc1ccc(OC(F)(F)C(F)Cl)cc1 (stereo not drawn)
inactive: [15] 97 % of control | [17] 97 % of control | [16] 99 % of control | [18] 100 % of control | [19] 116 % of control | [20] 101 % of control

Cc1cc2c(cc1C)/C(=N\O)CCCC2
inactive: [21] 110 % of control | [22] 92 % of control | [23] 94 % of control

Clc1ccc(/C=N/N=C/c2ccc(Cl)cc2Cl)c(Cl)c1
inactive: [5] 98 % of control | [6] 98 % of control | [7] 102 % of control

CCOC(=O)NC(=O)NC(=O)OCC
inactive: dose: 75.0 mg/kg/injection, schedule: Q01DX009 (ip), vehicle: saline sonified 92 % of control | [9] 107 % of control | dose: 150.0 mg/kg/injection, schedule: Q01DX009 (ip), vehicle: saline sonified 94 % of control | [11] 119 % of control | dose: 300.0 mg/kg/injection, schedule: Q01DX009 (ip), vehicle: saline sonified 96 % of control | [12] 104 % of control

COc1ccc(NC(=O)C(c2ccccc2)c2ccccc2)cc1
inactive: [21] 92 % of control | [22] 93 % of control | [23] 92 % of control

CCN1CCC2CN(C(=N)N)CCN2C1=O (stereo not drawn)
inactive: [9] 101 % of control | [11] 103 % of control | [12] 116 % of control

C#CC1(OC(N)=O)CCCCC1
inactive: [15] 98 % of control | [16] 91 % of control | [19] 98 % of control

Clc1ccccc1Nc1nnnc2ccccc12
inactive: dose: 50.0 mg/kg/injection, schedule: Q01DX009 (ip), vehicle: saline 91 % of control | [8] 95 % of control | dose: 100.0 mg/kg/injection, schedule: Q04DX003 (ip), vehicle: acetone 96 % of control | [10] 90 % of control | dose: 200.0 mg/kg/injection, schedule: Q04DX003 (ip), vehicle: acetone 100 % of control | dose: 400.0 mg/kg/injection, schedule: Q04DX003 (ip), vehicle: acetone 98 % of control

Ic1ccc(-n2cccc2)cc1
inactive: dose: 100.0 mg/kg/injection, schedule: Q01DX001 (ip), vehicle: steriod suspending solution 95 % of control | dose: 200.0 mg/kg/injection, schedule: Q01DX001 (ip), vehicle: steriod suspending solution 101 % of control | dose: 400.0 mg/kg/injection, schedule: Q01DX001 (ip), vehicle: steriod suspending solution 92 % of control

NC(N)=N/N=C\c1ccc(O)c(O)c1
inactive: dose: 15.0 mg/kg/injection, schedule: Q01DX Z (ip), vehicle: carboxymethylcellulose (CMC) 97 % of control | dose: 30.0 mg/kg/injection, schedule: Q01DX Z (ip), vehicle: carboxymethylcellulose (CMC) 97 % of control | dose: 60.0 mg/kg/injection, schedule: Q01DX Z (ip), vehicle: carboxymethylcellulose (CMC) 113 % of control | dose: 120.0 mg/kg/injection, schedule: Q01DX Z (ip), vehicle: carboxymethylcellulose (CMC) 116 % of control | dose: 120.0 mg/kg/injection, schedule: Q01DX Z (oral), vehicle: carboxymethylcellulose (CMC) 109 % of control | dose: 240.0 mg/kg/injection, schedule: Q01DX Z (oral), vehicle: carboxymethylcellulose (CMC) 107 % of control | dose: 480.0 mg/kg/injection, schedule: Q01DX Z (oral), vehicle: carboxymethylcellulose (CMC) 103 % of control | dose: 960.0 mg/kg/injection, schedule: Q01DX Z (oral), vehicle: carboxymethylcellulose (CMC) 114 % of control

O=C1OC(c2ccccc2)CC12CCCCC2 (stereo not drawn)
inactive: [17] 102 % of control | [18] 100 % of control | [20] 100 % of control

c1ccc(C2=NNC(c3ccccn3)=NN2)nc1
inactive: [21] 96 % of control | [22] 96 % of control | [23] 102 % of control

CC(C)NC(=O)C1C2C=CC(CC2)C1C(=O)NC(C)C (stereo not drawn)
inactive: [21] 100 % of control | [22] 92 % of control | [23] 104 % of control

O=C1c2ccccc2C(=O)c2cc(/C=N/Nc3ccc([N+](=O)[O-])cc3[N+](=O)[O-])ccc21
inactive: dose: 100.0 mg/kg/injection, schedule: Q01DX001 (ip), vehicle: Klucel (hydroxypropylcellulose) (HPC) 93 % of control | dose: 200.0 mg/kg/injection, schedule: Q01DX001 (ip), vehicle: Klucel (hydroxypropylcellulose) (HPC) 90 % of control | dose: 400.0 mg/kg/injection, schedule: Q01DX001 (ip), vehicle: Klucel (hydroxypropylcellulose) (HPC) 86 % of control

CC(C)=CCc1c(N)nc(N)[nH]c1=O
inactive: [5] 98 % of control | [6] 98 % of control | [7] 106 % of control
